From publication PMC11665553, “12-Lipoxygenase inhibition delays onset of autoimmune diabetes in human gene replacement mice” (JCI Insight, 2024)
“And” between values parts separate entries of the source, which are not always exact repeats. Identical values can stand only once. “Also recorded” adds a separate entry of the source.

Tests used:
NOD.hALOX12 mice [1] = assay: Islet cell death and proliferation staining (TUNEL, H2A.X, PCNA) in NOD.hALOX12 mice
From the text: We, therefore, immunostained pancreatic sections for markers of cell death and proliferation in the islet.
Pancreatic tissues were fixed using 4% paraformaldehyde. After fixation, the tissues were embedded in paraffin and sectioned with a thickness of 5 μm. Three sections per mouse were used for analysis, with each section being spaced 100 μm apart. Tissue sections were immunostained with anti-insulin (ProteinTech, 15848-1-AP; 1:200), anti-glucagon (Abcam, ab92517; 1:200), anti–12-LOX (Thermo Fisher Scientific, PA5-26020; 1:200), anti–12/15-LOX (Abcam, ab80221; 1:200), anti-CD3 (Abcam, ab16669; 1:200), anti-F4/80 (Sigma-Aldrich, D2S9R; 1:150), anti-MAC2 (Thermo Fisher Scientific, EbioM3/38; 1:200), and anti-H2A.X (Cell Signaling Technology, 9718s; 1:200) primary antibodies followed by conjugated anti-rabbit Ig (Vector Laboratories) secondary antibody. A DAB (3,3′-diaminobenzedine) Peroxidase Substrate Kit from Vector Laboratories was used for detection. After immunostaining, the tissue sections were counterstained with hematoxylin (Sigma-Aldrich). Images were acquired using a BZ-X810 fluorescence microscope (Keyence) and β/α cell mass was quantified by insulin^+ or glucagon^+ area and whole pancreas area.
For immunofluorescent staining, pancreatic sections were stained with the following antibodies: anti-insulin (Dako, IR002; 1:4), anti-glucagon (Santa Cruz Biotechnology, sc514592; 1:50), anti-B220 (BioLegend, 03201; 1:100), anti-CD3 (Abcam, ab16669; 1:200), anti-PCNA (Santa Cruz Biotechnology, sc-7907; 1:100), anti–4-HNE (Abcam, ab46545; 1:200), and anti-GPx1 (Santa Cruz Biotechnology, sc-22145; 1:100). Highly cross-adsorbed Alexa Fluor secondary antibodies (Thermo Fisher Scientific) were used at a dilution of 1:500. Tissue sections were stained with DAPI (Thermo Fisher Scientific) to label cell nuclei. The Nikon A1 confocal microscopy was used to capture images. CellProfiler v4.1 software (https://cellprofiler.org/) was used for image analysis.
A TUNEL assay was used to determine β cell death in pancreatic islets. The assay was performed according to the protocol provided by the manufacturer (Abcam) and HRP-DAB chemistry was used for detection. Two sections, spaced 100 μm apart, were used for each mouse. Images were captured using a BZ-X810 fluorescence microscope system (Keyence). The number of TUNEL^+ cells was assessed manually per islet.

[2] = Pharmacokinetics after single p.o. dose in NOD.ShiLt/J mice (plasma LC-MS/MS); assay type: in vivo, mouse; conditions: 30 mg/kg p.o., mean ± SD
From the text: The NOD mouse model is a model of T1D that recapitulates many of the immune and β cell features of the disease ([20]). […] To address this question, we introgressed humanized hALOX12 mice onto the NOD background using a speed congenics approach. […] We next measured human 12-LOX protein levels in the NOD.hALOX12 mice.

NOD.hALOX12 mice [3] = assay: Diabetes incidence (prevention) in NOD.hALOX12 mice; assay type: in vivo, mouse; conditions: 30 mg/kg p.o. daily, 6–10 weeks of age
Protocol: Mice were followed for diabetes development (blood glucose ≥250 mg/dL on 2 consecutive days) until 25 weeks of age (Figure 3A).
Diabetes incidence was determined by observing 2 consecutive blood glucose values greater than 250 mg/dL.

C57BL/6J mice = assay: Multiple low-dose STZ-induced diabetes in WT C57BL/6J mice (random-fed blood glucose, GTT); assay type: in vivo, mouse; set-up: Random-fed blood glucose (Fig 1E) / GTT blood glucose (Fig 1F): unit not given here; conditions: for Random-fed blood glucose (Fig 1E): 30 mg/kg i.p. + STZ; for Random-fed blood glucose (Fig 1E) / GTT blood glucose (Fig 1F): listed as ML355; for GTT blood glucose (Fig 1F): Control (C57BL/6J)
human islets = test system: human islets; set-up: method as in PMID 28609824; conditions: cited from earlier work
12-LOX products = assay: Serum lipidomics (LC-MS/MS) of 12-LOX and non-12-LOX products in NOD.hALOX12 mice; assay type: in vivo, mouse
Protocol: Lipidomics analysis (by LC-MS/MS) was performed for a series of 12-LOX products resulting from different fatty acid substrates (Figure 2A).

NOD.hALOX12 mice [4] = assay: Insulitis scoring and pancreas immunostaining (CD3, B220, F4/80, MAC2) in NOD.hALOX12 mice; assay type: in vivo, mouse
NOD.hALOX12 mice [5] = assay: NanoString spatial proteomics of insulitic and insulin-positive areas in NOD.hALOX12 mice; assay type: in vivo, mouse
From the text: To specifically interrogate the nature of immune cells within the insulitic region, we performed spatial tissue-based proteomics (NanoString). We used insulin immunostaining and nuclei staining to identify β cells and the surrounding insulitic regions. Prevalidated antibodies in the GeoMx mouse immune panel were used to probe for immune cell subtypes in the peri-islet insulitic region and within the islet. […] This reduction in myeloid cell populations was accompanied by a decrease in T and B cells populations, including CD4^+, CD3^+, CD8^+, and CD19^+ cells (Figure 2F and Supplemental Figure 2, A and B). […] Enhanced PD-L1/PD-1 interactions shift T cells to less aggressive, more regulatory phenotypes ([21]).
Paraffin embedded pancreata were used for NanoString spatial proteomics analysis. Tissues were stained with morphology markers: AF-647–conjugated insulin (Cell Signaling Technology, 9008s; 1:400) and nuclei marker (SYTO13). Tissues were hybridized using a pre-validated mouse GeoMx Immune cell panel (NanoString, GMX-PROCONCT-MICP) comprising the following markers: PD-1, CD11c, CD8a, PanCk, MHC II, CD19, CTLA4, SMA, CD11b, CD3e, fibronectin, Ki-67, CD4, GZMB, F4/80, CD45, PD-L1; housekeeping genes: histone H3, S6, GAPDH; and IgG antibodies: Rb IgG, Rat IgG2a, and Rat IgG2b for background subtraction. All markers were conjugated to unique UV-photocleavable oligos for indexing. At least 5 or 6 islets with insulitis were chosen as regions of interest (ROIs) per mouse based on the morphology markers (insulin and nuclei). The ROIs were segmented into insulitic region and insulin^+ region for each islet. Oligonucleotides from the segmented ROIs were photocleaved, collected in a 96-well plate, and reads were counted using nCounter (NanoString). Scaling was performed to normalize for any differences in tissue surface area and depth. After scaling, reads were normalized to housekeeping markers and background was subtracted using IgG markers.

[6] = female NOD.hALOX12 mice, 4 weeks of treatment
[7] = sheet Fig 4D, individual mice, listed as VLX
[8] = female NOD.hALOX12 mice, 30 mg/kg p.o., 1 week
[9] = serum, individual animals, listed as VLX
[10] = female NOD.hALOX12 mice, 30 mg/kg p.o., 4 weeks
[11] = sheet Fig 2G, pancreas immunostaining, individual animals, listed as VLX
[12] = Insulitic Area, Fig 2F source data, individual values
[13] = sheet SFig 2A, individual regions of interest

## COc1cccc(CNc2ccc(S(=O)(=O)Nc3nc4ccccc4s3)cc2)c1O [VLX-1005]
NOD.hALOX12 mice [1]; [6]
  Islet cell death (TUNEL, H2A.X staining) vs vehicle: decreased islet cell death
  β cell proliferation (PCNA immunostaining) vs vehicle: decreased β cell proliferation
NOD.hALOX12 mice [1]; [7]
  H2Ax: 0.25 and 0.166 and 0 and 0.14
  PCNA: 1.4 and 1.2 and 0.9 and 1.83
[2]; dose-normalized
  AUClast/D: 440 ± 54 ng·h/mL
[2]
  AUC%extrap_obs: 0.115 ± 0.099%
[2]; mouse, plasma, po
  AUC(0-inf): 13200 ng·h/mL
  AUC(0-t): 13200 ng·h/mL
  Cmax: 14300 ng/mL
  half-life: 152 ± 24.6 min
[2]; mouse, plasma, po, read-out: MRTinf_obs
  MRT inf: 3.81 ± 0.71 h
NOD.hALOX12 mice [3]; female NOD.hALOX12 mice
  Mice protected from diabetes development at 25 weeks of age: 60%
NOD.hALOX12 mice [3]; male NOD.hALOX12 mice
  Mice protected from diabetes development at 25 weeks of age: 75%
C57BL/6J mice; C57BL/6J, day 0, individual mice
  Random-fed blood glucose (Fig 1E): 180 and 167 and 192 and 187
C57BL/6J mice; C57BL/6J, day 5, individual mice
  Random-fed blood glucose (Fig 1E): 172 and 214 and 232 and 221
C57BL/6J mice; C57BL/6J, day 10, individual mice
  Random-fed blood glucose (Fig 1E): 253 and 280 and 275 and 278
C57BL/6J mice; C57BL/6J, day 15, individual mice
  Random-fed blood glucose (Fig 1E): 347 and 298 and 284 and 335
C57BL/6J mice; C57BL/6J, day 22, individual mice
  Random-fed blood glucose (Fig 1E): 347 and 428 and 437 and 367
C57BL/6J mice; C57BL/6J, day 27, individual mice
  Random-fed blood glucose (Fig 1E): 487 and 478 and 512 and 486
C57BL/6J mice; C57BL/6J, day -5, individual mice
  Random-fed blood glucose (Fig 1E): 190 and 213 and 199 and 201
C57BL/6J mice; C57BL/6J, 30 mg/kg i.p., day 4 after STZ, individual mice
  GTT AUC (Fig 1G): 44930 and 36610 and 49530 and 43880
C57BL/6J mice; 30 mg/kg i.p., day 4 after STZ, 0 min after glucose, individual mice
  GTT blood glucose (Fig 1F): 164 and 184 and 175 and 154
C57BL/6J mice; 30 mg/kg i.p., day 4 after STZ, 10 min after glucose, individual mice
  GTT blood glucose (Fig 1F): 268 and 395 and 398 and 425
C57BL/6J mice; 30 mg/kg i.p., day 4 after STZ, 20 min after glucose, individual mice
  GTT blood glucose (Fig 1F): 532 and 602 (2×) and 658
C57BL/6J mice; 30 mg/kg i.p., day 4 after STZ, 30 min after glucose, individual mice
  GTT blood glucose (Fig 1F): 682 and 563 and 602 and 586
C57BL/6J mice; 30 mg/kg i.p., day 4 after STZ, 60 min after glucose, individual mice
  GTT blood glucose (Fig 1F): 547 and 425 and 594 and 493
C57BL/6J mice; 30 mg/kg i.p., day 4 after STZ, 90 min after glucose, individual mice
  GTT blood glucose (Fig 1F): 459 and 369 and 530 and 452
C57BL/6J mice; 30 mg/kg i.p., day 4 after STZ, 120 min after glucose, individual mice
  GTT blood glucose (Fig 1F): 366 and 256 and 369 and 398
C57BL/6J mice; male WT C57BL/6J mice, 30 mg/kg i.p. daily peri-STZ
  Glycemic outcome after STZ: became overtly hyperglycemic
Human islets
  Cytotoxicity in human islets: without evidence of cytotoxicity
Human islets; proinflammatory cytokines
  Effect on function of cytokine-treated human islets in vitro: efficacy in reversing the insulin secretory defects; also recorded: protect human islets in vitro against dysfunction caused by proinflammatory cytokines
12-LOX products; [8]
  Serum 12-HEPE level vs vehicle: not significantly changed
  Serum 12-HETE level vs vehicle: significantly reduced
  Serum 13-HODE level vs vehicle: significantly reduced
  Serum 14-HDHA level vs vehicle: significantly reduced
  Serum 17-HDHA level vs vehicle: significantly reduced
12-LOX products; [9]
  12-HEPE (Fig 2B): 14.181 and 5.614 and 0.079 and 3.392 and 10.786
  12-HETE (Fig 2B): 1108.62 and 574.602 and 13.903 and 321.764 and 853.064
  13(S)-HODE (Fig 2B): 213.641 and 75.17 and 53.113 and 81.494 and 90.355
  14-HDHA (Fig 2B): 76.057 and 30.285 and 4.719 and 24.172 and 46.818
  15-HETE (Fig 2B): 21.905 and 9.387 and 6.557 and 15.336 and 15.324
  17-HDHA (Fig 2B): 7.358 and 2.244 and 2.092 and 3.507 and 3.423
NOD.hALOX12 mice [4]; [10]
  T and B cell infiltration (pancreas pathology): reduced T and B cell infiltration
  T cells (CD3+), macrophages (F4/80+), activated macrophages (Mac2+) by immunohistochemistry: reductions
NOD.hALOX12 mice [4]; female NOD.hALOX12 mice, 30 mg/kg p.o., 4 weeks (6–10 weeks of age)
  Extent of insulitis (insulitis scoring) vs vehicle: significantly reduced
NOD.hALOX12 mice [4]; individual animals, listed as VLX
  Insulitis score (Fig 2E): 1.633 and 1.787 and 1.784 and 1.529 and 1.472
NOD.hALOX12 mice [4]; [11]
  CD3: 1.368e-5 and 2.024e-5 and 0.0002739 and 0 and 2.686e-5
  F4/80: 0.00043 and 0.0003528 and 0.0003661 and 0.0004659 and 0.0002593
  F4/80 (second Veh/VLX pair): 0.000451 and 0.000344 and 0.000488 and 0.0002845
NOD.hALOX12 mice [5]; [12]
  CD11b: 5.147 and 5.277 and 5.327 and 5.94 and 5.07 and 5.565 and 5.634 and 5.068 and 4.855 and 6.029
  CD11c: 2.876 and 1.502 and 2.598 and 4.232 and 2.537 and 2.93 and 3.146 and 2.8254 and 2.641 and 4.743
  CD45 (first CD45 row): 5.25 and 3.49 and 3.636 and 8.487 and 3.645 and 3.942 and 4.828 and 3.892 and 3.054 and 8.111
  CD45 (second CD45 row): -0.2135 and 0.0264 and 0.3853 and 4.031 and -1.253 and 0.3826 and 0.2212 and -1.155 and 0.06453 and 3.867
  CTLA4: 1.939 and 2.368 and 2.417 and 1.307 and 2.276 and 2.4212 and 3.583 and 2.587 and 3.2171 and 2.563
  F4/80: 0.2536 and 0.7983 and 1.224 and 1.023 and -0.1728 and 1.356 and 2.254 and 0.8327 and -0.1455 and 1.282
  GZMB: 4.352 and 4.4072 and 5.2506 and 2.9798 and 5.432 and 6.733 and 6.076 and 5.882 and 4.529 and 3.344
  MHC II: -0.6174 and 1.207 and 0.8883 and -0.3662 and -0.4066 and -0.144 and -0.3371 and 1.073 and -0.07508 and -1.247
  PD-1: -0.3236 and 0.1793 and 1.041 and 1.538 and -1.244 and -0.5413 and -0.07496 and 0.52 and -0.1742 and 0.5415
  PD-L1: 1.897 and 1.722 and 1.56 and 0.2193 and 1.6509 and 2.371 and 2.045 and 2.4831 and 1.059 and 0.2909
NOD.hALOX12 mice [5]; [10]
  Myeloid population subtypes (macrophages, dendritic cells) in insulitic and islet areas: notable reduction
  PD-L1 levels (spatial proteomics): increased levels
  T and B cell populations (CD4+, CD3+, CD8+, CD19+) in insulitic and islet areas: decrease
NOD.hALOX12 mice [5]; [13]
  CD4: 0.3826 and 0.2212 and -1.155 and 0.06453 and 3.867 and -0.2135 and 0.0264 and 0.3853 and 4.031 and -1.253
  CD8: 1.856 and 1.666 and 1.577 and 1.141 and 2.8916 and 1.46 and 1.4593 and 2.166 and 2.266 and 1.44
  CD11b: 5.565 and 5.634 and 5.068 and 4.855 and 6.029 and 5.147 and 5.277 and 5.327 and 5.94 and 5.07
  CD11c: 2.93 and 3.146 and 2.8254 and 2.641 and 4.743 and 2.876 and 1.502 and 2.598 and 4.232 and 2.537
  CD19: 0.2718 and 0.8536 and 0.6292 and 1.249 and 2.864 and 0.1873 and -0.4029 and 0.4865 and 2.831 and -0.3159
  CD-3e: 4.049 and 3.547 and 4.013 and 3.889 and 3.319 and 3.27 and 3.43 and 3.812 and 3.482 and 3.738
  CTLA4: 2.4212 and 3.583 and 2.587 and 3.2171 and 2.563 and 1.939 and 2.368 and 2.417 and 1.307 and 2.276
  F4/80: 1.356 and 2.254 and 0.8327 and -0.1455 and 1.282 and 0.2536 and 0.7983 and 1.224 and 1.023 and -0.1728
  GZMB: 6.733 and 6.076 and 5.882 and 4.529 and 3.344 and 4.352 and 4.4072 and 5.2506 and 2.9798 and 5.432
  PD-1: -0.5413 and -0.07496 and 0.52 and -0.1742 and 0.5415 and -0.3236 and 0.1793 and 1.041 and 1.538 and -1.244
  PD-L1: 2.371 and 2.045 and 2.4831 and 1.059 and 0.2909 and 1.897 and 1.722 and 1.56 and 0.2193 and 1.6509
NOD.hALOX12 mice [5]; sheet SFig 2B, individual regions of interest
  Ki67: 1.4 and 1.3004
